Test results as given in US8217039B2, “Aprepitant polymorph mixtures” (Dr. Reddy's Laboratories Ltd., priority 2006, dated 2012).
≈ marks a conversion by molar mass, not a printed value.

Legend:
[1] = cited from earlier work
[2] = 2:1 v/v methanol/water mixture at 0° C.; cited from earlier work
[3] = Stability studies of 50:50 intimate mixture under stress conditions (Form I to Form II ratio by XRPD); assay type: physicochemical; conditions: milling, micronization, or drying at about 90° C. for prolonged periods
Experimental: Experimental conditions for performing the XRPD analysis for quantification were as follows: Process the diffraction peak for Form II≈21.15° (2θ) with constant smooth factor of 0.07 to check the detection of Form II and for the quantification of Form II the area of Form II peak and reference peak of Form I were taken. The Form I and Form II areas of two preparations of the test sample were noted. Then average the Form I and Form II areas. The percentage of Form II in Form I is calculated by the following formula: % of Form II=[(S2/S1)÷K=(S2/S1)]×100 • S1=Area of peak corresponding to Form I • S2=Area of peak corresponding to Form II K=Response constant for Form II relative to Form I. The areas of the peaks associated with Form I and Form II (characteristic peaks) were measured using Bruker X-ray diffraction evaluation software. From these areas, the response constant for Form II relative to Form I was determined. The value for the K factor was 0.32. A 50:50 weight ratio intimate mixture of aprepitant Form I and Form II prepared using the process of Example 12 was subjected to different conditions to determine the stability of the mixture under stress conditions.

Structure (SMILES) | thermodynamic stability compared with other crystalline forms ([1]; compared with Form II) | hygroscopicity ([1]; compared with other crystalline forms) | solubility [2] [µg/mL] | conversion to Form I upon stress conditions [3] | numeric ratio of solubilities (Form II vs Form I) [2]
C[C@@H](O[C@H]1OCCN(Cc2n[nH]c(=O)[nH]2)[C@H]1c1ccc(F)cc1)c1cc(C(F)(F)F)cc(C(F)(F)F)c1 [Form I, 5-[[(2R,3S)-2-[(1R)-1-[3,5-bis(trifluoromethyl)phenyl]ethoxy]-3-(4-fluorophenyl)-4-morpholinyl]methyl]-1,2-dihydro-3H-1,2,4-triazol-3-one] | superior thermodynamic stability | non-hygroscopic | 900 ± 100 (≈ 1680 µM) |  | 
C[C@@H](O[C@H]1OCCN(Cc2n[nH]c(=O)[nH]2)[C@H]1c1ccc(F)cc1)c1cc(C(F)(F)F)cc(C(F)(F)F)c1 [5-[[(2R,3S)-2-[(1R)-1-[3,5-bis(trifluoromethyl)phenyl]ethoxy]-3-(4-fluorophenyl)-4-morpholinyl]methyl]-1,2-dihydro-3H-1,2,4-triazol-3-one] |  |  |  | does not convert to the more stable Form I | 
C[C@@H](O[C@H]1OCCN(Cc2n[nH]c(=O)[nH]2)[C@H]1c1ccc(F)cc1)c1cc(C(F)(F)F)cc(C(F)(F)F)c1 [Form II, 5-[[(2R,3S)-2-[(1R)-1-[3,5-bis(trifluoromethyl)phenyl]ethoxy]-3-(4-fluorophenyl)-4-morpholinyl]methyl]-1,2-dihydro-3H-1,2,4-triazol-3-one] |  |  | 1300 ± 200 (≈ 2430 µM) |  | 1.4
